From article PMC9732821, “Neurotrophic Activity and Its Modulation by Zinc Ion of a Dimeric Peptide Mimicking the Brain-Derived Neurotrophic Factor N-Terminal Region” (ACS Chemical Neuroscience, 2022)

Tested on: SH-SY5Y cells
Test: MTS cell viability assay, RA-differentiated SH-SY5Y cells
Format: cell-based, human
Conditions: three days
Experimental: one-way ANOVA with Dunnett’s multiple comparison test , # p<0.05 versus BDNF, according to one-way ANOVA with Sidak’s multiple comparison test).
Figure S 2. MT S assay for BDNF and its mimetic peptides. Cell viability assay of RA - differentiated SH -SY5Y cells treated for three days with 150 ng/ml BDNF of with different concentrations of m-, d- or s-bdnf peptides (M, D and S, respectively). ** p<0.01, *p<0.05, according to one-way ANOVA with Dunnett’s multiple comparison test).
(1 picture or pasted object on this page, not shown here) […]
incubated for 3 days in serum-free DMEM-F12 (morphometric ctrl). […]
SH-SY5Y were seeded at a density of 3.000 cell/well in 96 multiwell and differentiated as describe above. The viability of differentiated cells, in response to the various treatments, was assessed using an MTS assay (CellTiter 96 AQueous One Solution Cell Proliferation Assay kit; Promega) according to the manufacturer’s instructions. The absorbance of formazan at 490 nm was measured in a colorimetric assay with the EnSightTM multimode plate reader (Perkin Elmer). […]
TrkB phosphorylation was monitored after TrkB-eGFP construct immunoprecipitation, similarly to what previously reported for TrkA phosphorylation 3. […]

| Substance | cell viability (toxicity) (lower doses of m-bdnf) | cell viability (5–10 μM d-bdnf) |
| --- | --- | --- |
| HSDPARRGELSV-NH2 [m-bdnf, linear peptide fragment encompassing the first 12 amino acids of the mature NT N-terminal] | some toxicity |  |
| HSDPARRGELSVC-C-VSLEGRRAPDSH (disulfide) [d-bdnf] |  | no reduced vitality of the culture |
